Measurements reported in US20210355107A1, “MULTI-SUBSTITUTED PYRIDONE DERIVATIVES AND MEDICAL USE THEREOF” (Beijing Yuezhikangtai Biomedicines Co., Ltd., priority 2018, published 2021).

Biological target: T1, tyrosine kinase Mer (Homo sapiens, UniProt Q12866)
T1 construct: purchased Carna 08-108
T1 sequence (Q12866 528-999 limits assumed): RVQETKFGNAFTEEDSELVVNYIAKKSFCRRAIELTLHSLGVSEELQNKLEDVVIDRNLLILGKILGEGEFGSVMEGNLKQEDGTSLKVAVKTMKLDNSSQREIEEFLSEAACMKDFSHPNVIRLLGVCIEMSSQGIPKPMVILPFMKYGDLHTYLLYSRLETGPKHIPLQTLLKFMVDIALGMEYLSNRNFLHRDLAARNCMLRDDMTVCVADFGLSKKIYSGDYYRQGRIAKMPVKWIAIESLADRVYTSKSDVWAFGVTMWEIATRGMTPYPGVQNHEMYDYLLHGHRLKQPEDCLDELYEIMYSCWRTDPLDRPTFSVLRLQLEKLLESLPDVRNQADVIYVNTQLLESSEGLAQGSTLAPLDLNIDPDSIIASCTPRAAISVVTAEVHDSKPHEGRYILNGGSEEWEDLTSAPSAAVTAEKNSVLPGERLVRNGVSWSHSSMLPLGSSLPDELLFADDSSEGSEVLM
Test: HTRF assay, inhibitory activity against tyrosine kinase Mer
Format: biochemical
Conditions: ATP at Km (30 μM), two duplicate wells
Procedure: Test Example 2: Evaluation of Inhibitory Activity (IC50) of Compounds disclosed herein against Tyrosine Kinases Mer and Tyro3
In this test, HTRF method was used to test the inhibitory activity of compounds when ATP concentrations correspond to the Km of the kinases. The control substance was RXDX-106. The concentration of test compound was 3-fold diluted from an initial concentration of 10 μM, and two duplicate wells were set.
Kinase Mer (Carna, Cat. No. 08-108, Lot. No. 14CBS-0421H); Tyro3 (Carna, Cat. No. 08-109, Lot. No. 08CBS-1186H); HTRF kinase-TK kit (Cisbio, Cat. No. 62TK0PEC), the kit comprising: biotin-TK substrate lyophilized powder (Cisbio, Cat. No. 61TK0BLC, Lot. No. 07A), streptavidin-XL665 (Cisbio, Cat. No. 610SAXLG, Lot. No. 126A), TK antibody-cryptate (Cisbio, Cat. No. 610SAXLG, Lot. No. 04A), and detection buffer (including EDTA) (Cisbio, Cat. No. 62TK0PEC, Lot. No. 12A); ATP (Sigma, Cat. No. A7699-5G, CAS No. 34369-07-8, Lot. No. SLBQ6014V); DMSO (Sigma, Cat. No. D5879-1L, Lot. No. SHBH9944); HEPES (Sigma, Cat. No. V900477-500G, CAS No. 7365-45-9, Lot. No. WXBC4716V); MgCl2 (Sigma, Cat. No. 208337-1KG, Lot. No. MKBX9508V); EGTA (Sigma, Cat. No. E3889-100g, CAS 67-42-5, […], Lot. No. SLBG8546V); NP-40 (Beijing Dingguo, Cat. No. DH218, Lot. No. 36R00160); DTT (Sigma, Cat. No. D0632-25g, CAS No. 3483-12-3, Lot. No. SLBF3964V); compound plate (Labcyte, Cat. No. LP0200, Lot. No. 0006386836); assay plate (Greiner, Cat. No. 784075, Lot. No. E16123HM); control substance RXDX-106 (prepared according to the method disclosed in patent WO2013074633).
1) Preparation of a buffer: 50 mM HEPES, 10 mM MgCl2, 1 mM EGTA, 0.01% NP-40, 2 mM DTT.
2) Preparation of control substance and test samples: RXDX-106 and the compounds disclosed herein were each dissolved in DMSO to 10 mM and then diluted to 1 mM or an appropriate concentration with DMSO, and then serial double dilution was performed using BRAVO (Agilent). 100 nL of each was transferred from a compound plate (Labcyte-LP0200) to an assay plate (Greiner-784075) using ECHO 555 (Labcyte). The final concentration of DMSO was 1%.
3) Mer and Tyro3 were each diluted to 0.5 nM and 1.2 nM with the detection buffer (Cisbio, Cat. No. 62TK0PEC, Lot. No. 12A). 5 μL of each was added to a 384-well plate and incubated with the compounds disclosed herein for 30 min at 22-25° C. Final concentrations of Mer and Tyro3 were 0.25 nM and 0.6 nM, respectively.
4) Biotin-TK substrate and ATP were each diluted to a concentration twice the final concentration with 1× kinase buffer made up of HEPES, NaN3, BSA and orthovanadate. 5 μL of the mixture of substrate and ATP was added to the 384-well plate to initiate the reaction, which lasts for 1 h at 22-25° C.
5) Streptavidin-XL665 and TK antibody-cryptate were diluted to 250 nM and 0.5 nM, respectively, with the detection buffer. […] of each of the two solutions was added to the 384-well plate to initiate the reaction, which lasts for 1 h at 22-25° C. The final concentrations of streptavidin-XL665 and TK antibody-cryptate were 125 nM and 0.25 nM, respectively.
6) The fluorescence intensities at 665 nm and 615 nm were read with an Envision Reader (PerkinElmer) .
7) IC50 values of the compounds were fitted with XL-fit software.

SMILES | IC50 [nM]
CC(C)n1cc(C(=O)Nc2ccc(-c3cc(-c4cnn(C)c4)cnc3N)c(F)c2)c(=O)c(-c2ccc(F)cc2)c1C#N [Example 4, N-(4-(2-amino-5-(1-methyl-1H-pyrazol-4-yl)pyridin-3-yl)-3-fluorophenyl)-6-cyano-5-(4-fluorophenyl)-1-isopropyl-4-oxo-1,4-dihydropyridine-3-carboxamide] | 0.78
[2H]C([2H])([2H])n1cc(-c2cnc(N)c(-c3cc(F)c(NC(=O)c4cn(C(C)C)c(C#N)c(-c5ccc(F)cc5)c4=O)cc3F)c2)cn1 [Example 34, N-(4-(2-amino-5-(1-methyl-d3-1H-pyrazol-4-yl)pyridin-3-yl)-2,5-difluorophenyl)-6-cyano-5-(4-fluorophenyl)-1-isopropyl-4-oxo-1,4-dihydropyridine-3-carboxamide] | 1.16
CCn1cc(-c2cnc(N)c(-c3ccc(NC(=O)c4cn(C(C)C)c(C#N)c(-c5ccc(F)cc5)c4=O)cc3F)c2)cn1 [Example 3, N-(4-(2-amino-5-(1-ethyl-1H-pyrazol-4-yl)pyridin-3-yl)-3-fluoro-phenyl)-6-cyano-5-(4-fluorophenyl)-1-isopropyl-4-oxo-1,4-dihydropyridine-3-carboxamide] | 1.11
CC(C)n1cc(C(=O)Nc2ccc(-c3cc(-c4cnn(C5CCNCC5)c4)cnc3N)c(F)c2)c(=O)c(-c2ccc(F)cc2)c1C#N [Example 2, N-(4-(2-amino-5-(1-(piperidin-4-yl)-1H-pyrazol-4-yl)pyridin-3-yl)-3-fluorophenyl)-6-cyano-5-(4-fluorophenyl)-1-isopropyl-4-oxo-1,4-dihydropyridine-3-carboxamide] | 0.62
COc1cc2nccc(Oc3ccc(NC(=O)c4cn(C(C)C)c(C#N)c(-c5ccc(F)cc5)c4=O)cc3F)c2cc1OC [Example 24, 6-cyano-N-(4-((6,7-dimethoxyquinolin-4-yl)oxy)-3-fluoro-phenyl)-5-(4-fluorophenyl)-1-isopropyl-4-oxo-1,4-dihydropyridine-3-carboxamide] | 11.4
CCn1cc(-c2cnc(N)c(-c3ccc(NC(=O)c4cn(C5CC5)c(C#N)c(-c5ccc(F)cc5)c4=O)cc3F)c2)cn1 [Example 10, N-(4-(2-amino-5-(1-ethyl-1H-pyrazol-4-yl)pyridin-3-yl)-3-fluorophenyl)-6-cyano-5-(4-fluorophenyl)-1-cyclopropyl-4-oxo-1,4-dihydropyridine-3-carboxamide] | 2.17
CC(C)n1cc(C(=O)Nc2ccc(-c3cc(-c4cnn(C5CCN(C)CC5)c4)cnc3N)c(F)c2)c(=O)c(-c2ccc(F)cc2)c1C#N [Example 7, N-(4-(2-amino-5-(1-(1-methylpiperidin-4-yl)-1H-pyrazol-4-yl)-pyridin-3-yl)-3-fluorophenyl)-6-cyano-5-(4-fluorophenyl)-1-isopropyl-4-oxo-1,4-dihydro-pyridine-3-carboxamide] | 0.63
CCn1cc(-c2cnc(N)c(-c3cc(F)c(NC(=O)c4cn(C(C)C)c(C#N)c(-c5ccc(F)cc5)c4=O)cc3F)c2)cn1 [Example 33, N-(4-(2-amino-5-(1-ethyl-1H-pyrazol-4-yl)pyridin-3-yl)-2,5-difluorophenyl)-6-cyano-5-(4-fluorophenyl)-1-isopropyl-4-oxo-1,4-dihydropyridine-3-carboxamide] | 0.92
CC(C)n1cc(C(=O)Nc2cc(F)c(-c3cc(-c4cnn(C)c4)cnc3N)cc2F)c(=O)c(-c2ccc(F)cc2)c1C#N [Example 6, N-(4-(2-amino-5-(1-methyl-1H-pyrazol-4-yl)pyridin-3-yl)-2,5-difluorophenyl)-6-cyano-5-(4-fluorophenyl)-1-isopropyl-4-oxo-1,4-dihydropyridine-3-carboxamide] | 1.17
